The test system of this assay is HT-29 cells. The assay is described as follows: Necroptosis assay (TNF-α/Smac mimetic/z-VAD, TSZ-induced) in HT-29 cells. It is filed as cell-based, human. The method in brief:
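HT-29 cells were challenged with 20 ng/ml TNF-α, 100 nM Smac mimetic and 20 mM z-VAD while compound was added at the same time (library screen at 10 mM). After 24 h, viability was read as ATP luminescence (CellTiter-Glo) and normalized to DMSO-treated cells; values are means ± SD of duplicates.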

Where [1] appears, read: Homo sapiens, Series 1 (Table 1) compounds 1-146, HT-29 cells, TNF-α/Smac mimetic/z-VAD, 24 hrs, cell viability by ATP level, read-out: Series 1 compound necroptosis activity.
Setting [2] is: Series 1 (Table 1) compounds, HT-29 cells, TNF-α/Smac mimetic/z-VAD, 24 hrs, cell viability by ATP level, read-out: Series 1 compound necroptosis activity.
Setting [3] is: Series 1 (Table 1) compounds 1-146, HT-29 cells, TNF-α/Smac mimetic/z-VAD, 24 hrs, cell viability by ATP level, read-out: Series 1 compound necroptosis activity.
Where [4] appears, read: Series 1 (Table 1) compounds 147-176, activity extrapolated, read-out: Series 1 compound necroptosis activity (extrapolated).

Molecules are shown by their SMILES. Where two headings read alike, the source gives them in different places.

For `Cn1c(=O)c2c(nc(S(C)(=O)=O)n2C)n(CC#N)c1=O` [Compound 107, 2-(1,7-dimethyl-8-(methylsulfonyl)-2,6-dioxo-1H-purin-3(2H,6H,7H)-yl)acetonitrile], under setting [1], the EC50 is 1 to 100 µM.

`Cn1c(=O)c2c(nc(S(=O)(=O)CC3CC3)n2C)n(CC#Cc2cccc(Cl)c2)c1=O` [Compound 119, 3-(3-(3-chlorophenyl)prop-2-yn-1-yl)-8-((cyclopropylmethyl)sulfonyl)-1,7-dimethyl-3,7-dihydro-1H-purine-2,6-dione]: the EC50 under setting [1] was 1 to 10 µM.

Turning to `Cn1c(=O)c2c(nc(S(=O)(=O)CC3CC3)n2C)n(CC#Cc2ccc(Cl)cc2)c1=O` [Compound 121, 3-(3-(4-chlorophenyl)prop-2-yn-1-yl)-8-((cyclopropylmethyl)sulfonyl)-1,7-dimethyl-3,7-dihydro-1H-purine-2,6-dione], the EC50 under setting [2] was 0.001 to 1 µM.

Regarding `Cn1c(=O)c2c(nc(S(=O)(=O)CC3CC3)n2C)n(CC#Cc2ccc(Br)cc2)c1=O` [Compound 122, 3-(3-(4-bromophenyl)prop-2-yn-1-yl)-8-((cyclopropylmethyl)sulfonyl)-1,7-dimethyl-3,7-dihydro-1H-purine-2,6-dione], under setting [2], the EC50 lay in the range of 0.001 to 1 µM.

In the case of `Cn1c(=O)c2c(nc(S(=O)(=O)CC3CC3)n2C)n(CC#Cc2cccc(NC(=O)OC(C)(C)C)c2)c1=O` [Compound 123, tert-butyl(3-(3-(8-((cyclopropylmethyl)sulfonyl)-1,7-dimethyl-2,6-dioxo-1,2,6,7-tetrahydro-3H-purin-3-yl)prop-1-yn-1-yl)phenyl)carbamate], the EC50 under setting [2] lay in the range of 0.001 to 1 µM.

On to `Cn1c(=O)c2c(nc(S(=O)(=O)CC3CC3)n2C)n(CC#Cc2cccc(N)c2)c1=O` [Compound 124, 3-(3-(3-aminophenyl)prop-2-yn-1-yl)-8-((cyclopropylmethyl)sulfonyl)-1,7-dimethyl-3,7-dihydro-1H-purine-2,6-dione], for which, under setting [2], the EC50 was 0.001 to 1 µM.

On to `Cn1c(=O)c2c(nc(S(=O)(=O)CC3CC3)n2C)n(CC#Cc2cccc([N+](=O)[O-])c2)c1=O` [Compound 125, 8-((cyclopropylmethyl)sulfonyl)-1,7-dimethyl-3-(3-(3-nitrophenyl)prop-2-yn-1-yl)-3,7-dihydro-1H-purine-2,6-dione], for which the EC50 under setting [2] lay in the range of 0.001 to 1 µM.

In the case of `CNc1cc(C#CCn2c(=O)n(C)c(=O)c3c2nc(S(=O)(=O)CC2CC2)n3C)ccn1` [Compound 126, 8-((cyclopropylmethyl)sulfonyl)-1,7-dimethyl-3-(3-(2-(methylamino)pyridin-4-yl)prop-2-yn-1-yl)-3,7-dihydro-1H-purine-2,6-dione], the EC50 under setting [2] fell in the range of 0.001 to 1 µM.

Take `CNc1cc(C#CCn2c(=O)n(C)c(=O)c3c2nc(S(=O)(=O)Cc2cc(OC)ccc2OC)n3C)ccn1` [Compound 127, 8-((2,5-dimethoxybenzyl)sulfonyl)-1,7-dimethyl-3-(3-(2-(methylamino)pyridin-4-yl)prop-2-yn-1-yl)-3,7-dihydro-1H-purine-2,6-dione]: the EC50 under setting [1] lay within 1 to 10 µM.

For the molecule `CNc1cc(C#CCn2c(=O)n(C)c(=O)c3c2nc([S+]([O-])Cc2cc(OC)ccc2OC)n3C)ccn1` (stereo not drawn) [Compound 128, 8-((2,5-dimethoxybenzyl)sulfinyl)-1,7-dimethyl-3-(3-(2-(methylamino)pyridin-4-yl)prop-2-yn-1-yl)-3,7-dihydro-1H-purine-2,6-dione], under setting [1], the EC50 was in the range of 1 to 100 µM.

In the case of `COc1ccc(OC)c(Cn2c(=O)n(C)c(=O)c3c2nc(S(=O)(=O)Cc2cc(OC)ccc2OC)n3C)c1` [Compound 129, 3-(2,5-dimethoxybenzyl)-8-(2,5-dimethoxybenzylsulfonyl)-1,7-dimethyl-1H-purine-2,6(3H,7H)-dione], the EC50 under setting [1] fell in the range of 1 to 100 µM.

With `Cn1c(=O)c2c(nc(S(C)(=O)=O)n2C)n(Cc2cccs2)c1=O` [Compound 131, 1,7-dimethyl-8-(methylsulfonyl)-3-(thiophen-2-ylmethyl)-1H-purine-2,6(3H,7H)-dione], the EC50 under setting [2] was in the range of 0.001 to 1 µM.

With `CCNC(=O)C#CCn1c(=O)n(C)c(=O)c2c1nc(S(C)(=O)=O)n2C` [Compound 132, 4-(1,7-dimethyl-8-(methylsulfonyl)-2,6-dioxo-1H-purin-3(2H,6H,7H)-yl)-N-ethylbut-2-ynamide], the EC50 under setting [3] was in the range of 1 to 1000 µM.

As for `Cn1c(=O)c2c(nc(S(=O)(=O)CC3CC3)n2C)n(Cc2ccccc2F)c1=O` [Compound 133, 8-((cyclopropylmethyl)sulfonyl)-3-(2-fluorobenzyl)-1,7-dimethyl-1H-purine-2,6(3H,7H)-dione], under setting [1], the EC50 was in the range of 1 to 100 µM.

On to `Cn1c(=O)c2c(nc(S(=O)(=O)CC3CC3)n2C)n(Cc2cccc(F)c2)c1=O` [Compound 134, 8-((cyclopropylmethyl)sulfonyl)-3-(3-fluorobenzyl)-1,7-dimethyl-1H-purine-2,6(3H,7H)-dione], for which the EC50 under setting [1] is 1 to 100 µM.

On to `Cn1c(=O)c2c(nc(S(=O)(=O)CC3CC3)n2C)n(Cc2ccc(F)cc2)c1=O` [Compound 135, 8-((cyclopropylmethyl)sulfonyl)-3-(4-fluorobenzyl)-1,7-dimethyl-1H-purine-2,6(3H,7H)-dione], for which, under setting [1], the EC50 fell in the range of 1 to 100 µM.

With `Cn1c(=O)c2c(nc(S(=O)(=O)CC3CC3)n2C)n(Cc2ccccc2Cl)c1=O` [Compound 136, 3-(2-chlorobenzyl)-8-((cyclopropylmethyl)sulfonyl)-1,7-dimethyl-1H-purine-2,6(3H,7H)-dione], the EC50 under setting [1] lay in the range of 1 to 100 µM.

Regarding `Cn1c(=O)c2c(nc(S(=O)(=O)CC3CC3)n2C)n(Cc2cccc(Cl)c2)c1=O` [Compound 137, 3-(3-chlorobenzyl)-8-((cyclopropylmethyl)sulfonyl)-1,7-dimethyl-1H-purine-2,6(3H,7H)-dione], under setting [1], the EC50 is 1 to 100 µM.

For the molecule `Cn1c(=O)c2c(nc(S(=O)(=O)CC3CC3)n2C)n(Cc2ccc(Cl)cc2)c1=O` [Compound 138, 3-(4-chlorobenzyl)-8-((cyclopropylmethyl)sulfonyl)-1,7-dimethyl-1H-purine-2,6(3H,7H)-dione], the EC50 under setting [1] was in the range of 1 to 100 µM.

Turning to `Cn1c(=O)c2c(nc(S(=O)(=O)CC3CC3)n2C)n(Cc2ccccc2Br)c1=O` [Compound 139, 3-(2-bromobenzyl)-8-((cyclopropylmethyl)sulfonyl)-1,7-dimethyl-1H-purine-2,6(3H,7H)-dione], the EC50 under setting [1] is 1 to 100 µM.

`Cn1c(=O)c2c(nc(S(=O)(=O)CC3CC3)n2C)n(Cc2cccc(Br)c2)c1=O` [Compound 140, 3-(3-bromobenzyl)-8-((cyclopropylmethyl)sulfonyl)-1,7-dimethyl-1H-purine-2,6(3H,7H)-dione]: under setting [1], the EC50 lay within 1 to 100 µM.

On to `Cn1c(=O)c2c(nc(S(=O)(=O)CC3CC3)n2C)n(Cc2ccc(Br)cc2)c1=O` [Compound 141, 3-(4-bromobenzyl)-8-((cyclopropylmethyl)sulfonyl)-1,7-dimethyl-1H-purine-2,6(3H,7H)-dione], for which the EC50 under setting [1] is 1 to 100 µM.

With `Cn1c(=O)c2c(nc(S(=O)(=O)CC3CC3)n2C)n(Cc2ccccn2)c1=O` [Compound 142, 8-((cyclopropylmethyl)sulfonyl)-1,7-dimethyl-3-(pyridin-2-ylmethyl)-1H-purine-2,6(3H,7H)-dione], the EC50 under setting [3] is 1 to 1000 µM.

Take `Cn1c(=O)c2c(nc(S(=O)(=O)CC3CC3)n2C)n(Cc2cccnc2)c1=O` [Compound 143, 8-((cyclopropylmethyl)sulfonyl)-1,7-dimethyl-3-(pyridin-3-ylmethyl)-1H-purine-2,6(3H,7H)-dione]: under setting [3], the EC50 lay within 1 to 1000 µM.

For the molecule `Cn1c(=O)c2c(nc(S(=O)(=O)CC3CC3)n2C)n(Cc2ccncc2)c1=O` [Compound 144, 8-((cyclopropylmethyl)sulfonyl)-1,7-dimethyl-3-(pyridin-4-ylmethyl)-1H-purine-2,6(3H,7H)-dione], the EC50 under setting [3] fell in the range of 1 to 1000 µM.

As to `Cc1c2c(=O)n(C)c(=O)n(C)c2nn1S(C)(=O)=O` [Compound 145, 3,5,7-trimethyl-2-(methylsulfonyl)-2H-pyrazolo[3,4-d]pyrimidine-4,6(5H,7H)-dione], the EC50 under setting [3] lay within 1 to 1000 µM.

As for `Cn1c(=O)c2nc(S(C)(=O)=O)n(C)c2n(C)c1=O` [Compound 146, 1,3,9-trimethyl-8-(methylsulfonyl)-3,9-dihydro-1H-purine-2,6-dione], the EC50 under setting [3] lay in the range of 1 to 1000 µM.

Turning to `Cn1c(=O)c2c(nc(S(=O)(=O)CCO)n2C)n(CC#Cc2cccc(O)c2)c1=O` [Compound 147], under setting [4], the EC50 is 1 to 1000 µM.

With `Cn1c(=O)c2c(nc3n2CCS3(=O)=O)n(CC#Cc2cccc(O)c2)c1=O` [Compound 148], the EC50 under setting [4] is 1 to 1000 µM.

On to `Cn1c(=O)c2c(nc3n2CCCS3(=O)=O)n(CC#Cc2cccc(O)c2)c1=O` [Compound 149], for which, under setting [4], the EC50 was 1 to 1000 µM.

As to `Cn1c(=O)c2c(nc(S(=O)(=O)CCN)n2C)n(CC#Cc2cccc(O)c2)c1=O` [Compound 150], the EC50 under setting [4] is 1 to 1000 µM.

Turning to `CNCCS(=O)(=O)c1nc2c(c(=O)n(C)c(=O)n2CC#Cc2cccc(O)c2)n1C` [Compound 151], under setting [4], the EC50 is 1 to 1000 µM.

For the molecule `CN(C)CCS(=O)(=O)c1nc2c(c(=O)n(C)c(=O)n2CC#Cc2cccc(O)c2)n1C` [Compound 152], under setting [4], the EC50 is 1 to 1000 µM.

With `Cn1c(=O)c2c(nc(S(=O)(=O)CCOCCO)n2C)n(CC#Cc2cccc(O)c2)c1=O` [Compound 153], under setting [4], the EC50 is 1 to 1000 µM.

Consider `COCCOCCS(=O)(=O)c1nc2c(c(=O)n(C)c(=O)n2CC#Cc2cccc(O)c2)n1C` [Compound 154], for which the EC50 under setting [4] was 1 to 1000 µM.

As for `CCCS(=O)(=O)c1nc2c(c(=O)n(C)c(=O)n2CC#Cc2cccc(O)c2)n1C` [Compound 155], under setting [4], the EC50 is 1 to 1000 µM.

`Cn1c(=O)c2c(nc(S(N)(=O)=O)n2C)n(CC#Cc2cccc(O)c2)c1=O` [Compound 156]: under setting [4], the EC50 is 1 to 1000 µM.

For the molecule `CNS(=O)(=O)c1nc2c(c(=O)n(C)c(=O)n2CC#Cc2cccc(O)c2)n1C` [Compound 157], the EC50 under setting [4] is 1 to 1000 µM.

Turning to `CN(C)S(=O)(=O)c1nc2c(c(=O)n(C)c(=O)n2CC#Cc2cccc(O)c2)n1C` [Compound 158], the EC50 under setting [4] is 1 to 1000 µM.

These data come from patent publication US11666577B2 (National Institute of Biological Sciences, Beijing, priority 2018, dated 2023).
